In ChEMBL document CHEMBL1201862, “PubChem BioAssay data set” (2004):
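In this assay, cells in 96-well plates receive the compound at five concentrations for 48 hours. Endpoints are linearly interpolated between the surrounding concentrations. GI50 is the concentration that inhibits growth by half.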 The source made the active and inactive calls. No stated cut-off is given here; in the data, active = GI50 up to about 1.1 µM and inactive = higher.

Experiments:
Test in all cases: NCI tumour cell line growth inhibition, 48 h
SNB-75 = tested on: SNB-75
UACC-62 = tested on: UACC-62
MOLT-4 = tested on: MOLT-4
HOP-62 = tested on: HOP-62
HT-29 = tested on: HT-29
NCI-H460 = tested on: NCI-H460
A498 = tested on: A498
EKVX = tested on: EKVX
SF-295 = tested on: SF-295
HL-60 = tested on: HL-60
HCC 2998 = tested on: HCC 2998
HCT-15 = tested on: HCT-15
SNB-19 = tested on: SNB-19
MCF7 = tested on: MCF7
T47D = tested on: T47D
BT-549 = tested on: BT-549
NCI/ADR-RES = tested on: NCI/ADR-RES
MDA-MB-435 = tested on: MDA-MB-435
Hs-578T = tested on: Hs-578T

SMILES	GI50 (SNB-75)	GI50 (UACC-62)	GI50 (MOLT-4)	GI50 (HOP-62)	GI50 (HT-29)	GI50 (NCI-H460)	GI50 (A498)	GI50 (EKVX)	GI50 (SF-295)	GI50 (HL-60)	GI50 (HCC 2998)	GI50 (HCT-15)	GI50 (SNB-19)	GI50 (MCF7)	GI50 (T47D)	GI50 (BT-549)	GI50 (NCI/ADR-RES)	GI50 (MDA-MB-435)	GI50 (Hs-578T)
N/C(=N\N=C=C1C(=O)Nc2ccc(F)cc21)NO	21.3 µM (inactive)	39.3 µM (inactive)	> 100 µM (inactive)	> 100 µM (inactive)	> 100 µM (inactive)	74.5 µM (inactive)	> 100 µM (inactive)	95.5 µM (inactive)	> 100 µM (inactive)	47.5 µM (inactive)	> 100 µM (inactive)	> 100 µM							
CC(C)(C)[Si](C)(C)OCC#C[C@@]1(O)CCCCC1CC(Sc1ccccc1)Sc1ccccc1 (some centres undefined)	14.8 µM (inactive)	12.9 µM (inactive)	11.6 µM (inactive)	16.9 µM (inactive)	14 µM (inactive)	15.2 µM (inactive)	16.3 µM (inactive)	16.4 µM (inactive)	14.7 µM (inactive)	18.8 µM (inactive)	15.6 µM (inactive)	14.9 µM	15.4 µM (inactive)	10.2 µM (inactive)	10.7 µM (inactive)	19 µM (inactive)	15 µM (inactive)	15.7 µM (inactive)	
NC(=S)N/N=C1\CCc2ccccc2C1		55 µM (inactive)	> 100 µM (inactive)	> 100 µM (inactive)	> 100 µM (inactive)	> 100 µM (inactive)	> 100 µM (inactive)	27 µM (inactive)	> 100 µM (inactive)	34.7 µM (inactive)	> 100 µM (inactive)	> 100 µM	> 100 µM (inactive)	54.2 µM (inactive)	13 µM (inactive)	> 100 µM (inactive)	> 100 µM (inactive)	> 100 µM (inactive)	
c1ccc2c(c1)c1c(n2CCOCCN2CCCC2)CCCC1	27.3 µM (inactive)	18.6 µM (inactive)	16.7 µM (inactive)	15.5 µM (inactive)	20 µM (inactive)	15 µM (inactive)		25.9 µM (inactive)	37.2 µM (inactive)	12.2 µM (inactive)	16.6 µM (inactive)	17 µM		16 µM (inactive)	28.7 µM (inactive)		19 µM (inactive)	18.9 µM (inactive)	14.9 µM (inactive)
COc1ccc(C2OC(=O)c3c2ccc2ccccc32)c(C)c1 (centres undefined)	2.93 µM (inactive)	7.19 µM (inactive)	2.73 µM (inactive)	3.48 µM (inactive)	3.37 µM (inactive)	3.3 µM (inactive)	1.93 µM (inactive)	6.07 µM (inactive)		2.33 µM (inactive)	1.02 µM (active)	1.93 µM	4.8 µM (inactive)	3.45 µM (inactive)		10.5 µM (inactive)			3.44 µM (inactive)
Cc1ccc(NC2=NCCO2)c2c1CCC2	32.9 µM (inactive)	30.7 µM (inactive)	33.9 µM (inactive)	27.9 µM (inactive)	33.3 µM (inactive)	27.5 µM (inactive)	41.6 µM (inactive)	48.4 µM (inactive)	> 100 µM (inactive)	16.7 µM (inactive)	32 µM (inactive)	44.2 µM	58.9 µM (inactive)	31.8 µM (inactive)	51.3 µM (inactive)		20.4 µM (inactive)	20.5 µM (inactive)	22.9 µM (inactive)
CC(=O)NCC1(c2ccccc2)CCN(CC2COc3ccccc3O2)CC1 (centres undefined) [ACOXATRINE]	> 100 µM (inactive)	> 100 µM (inactive)	> 100 µM (inactive)	> 100 µM (inactive)	39.4 µM (inactive)	> 100 µM (inactive)	> 100 µM (inactive)	> 100 µM (inactive)	> 100 µM (inactive)	> 100 µM (inactive)	> 100 µM (inactive)	> 100 µM	> 100 µM (inactive)	> 100 µM (inactive)	> 100 µM (inactive)		> 100 µM (inactive)	> 100 µM (inactive)	> 100 µM (inactive)
Cc1ccc2n(c1)cc(-c1ccc(/C=N/NC(=N)N/N=C/c3ccc(-c4cn5cc(C)ccc5[n+]4C)cc3)cc1)[n+]2C	20.9 µM (inactive)		> 100 µM (inactive)	> 100 µM (inactive)	> 100 µM (inactive)	80.2 µM (inactive)		> 100 µM (inactive)	> 100 µM (inactive)	> 100 µM (inactive)	> 100 µM (inactive)	95.9 µM	> 100 µM (inactive)	> 100 µM (inactive)	> 100 µM (inactive)		> 100 µM (inactive)	35.6 µM (inactive)	74.3 µM (inactive)
Cc1cc2nc3c(C#N)c(-c4ccccc4)cc(Nc4ccc(F)cc4)n3c2cc1C	15.9 µM (inactive)		17.6 µM (inactive)	14.4 µM (inactive)	28.6 µM (inactive)		22.1 µM (inactive)	14.6 µM (inactive)	17.6 µM (inactive)			9.25 µM			> 100 µM (inactive)	22.6 µM (inactive)	8.11 µM (inactive)	> 100 µM (inactive)	
C=C(C)[C@H]1CC(=O)/C(C)=C\CC/C(C)=C/CC[C@@]2(C)O[C@@H]2C1	41.4 µM (inactive)	8.47 µM (inactive)	31.8 µM (inactive)	40.2 µM (inactive)	16.3 µM (inactive)	16.8 µM (inactive)	> 100 µM (inactive)		34.3 µM (inactive)	27.5 µM (inactive)	34.5 µM (inactive)	33.9 µM	59.8 µM (inactive)			47.6 µM (inactive)	21.8 µM (inactive)	17 µM (inactive)	30.9 µM (inactive)
OC1c2ccccc2CC12Cc1ccccc1C2 (centres undefined)	61.4 µM (inactive)		24.5 µM (inactive)	> 100 µM (inactive)	86.7 µM (inactive)	> 100 µM (inactive)	> 100 µM (inactive)	> 100 µM (inactive)	> 100 µM (inactive)	74.1 µM (inactive)	> 100 µM (inactive)	> 100 µM	> 100 µM (inactive)	> 100 µM (inactive)	> 100 µM (inactive)		54.7 µM (inactive)	> 100 µM (inactive)	> 100 µM (inactive)
O=C(Cc1ccccc1)NNc1nc(NNC(=O)c2ccncc2)nc(Nc2ccccc2)n1	> 10 µM (inactive)	> 10 µM (inactive)	> 10 µM (inactive)	> 10 µM (inactive)	> 10 µM (inactive)	> 10 µM (inactive)		> 10 µM (inactive)		> 10 µM (inactive)	> 10 µM (inactive)	> 10 µM		> 10 µM (inactive)	> 10 µM (inactive)	> 10 µM (inactive)	> 10 µM (inactive)		> 10 µM (inactive)
N#Cc1c2c(c(Nc3cccc(C(F)(F)F)c3)n3c1nc1ccccc13)CCC2	> 100 µM (inactive)		> 100 µM (inactive)	> 100 µM (inactive)	> 100 µM (inactive)		> 100 µM (inactive)	> 100 µM (inactive)	> 100 µM (inactive)			> 100 µM			> 100 µM (inactive)	60.7 µM (inactive)	> 100 µM (inactive)	> 100 µM (inactive)	
CC(=O)OC1[C@H](OC(C)=O)C2=C(C)[C@@H](OC(C)=O)C[C@@]2(C(C)(C)O)[C@@H](OC(C)=O)[C@H]2[C@@]1(C)[C@@H](OC(C)=O)CC(OC(C)=O)[C@]21CO1 (some centres undefined)	> 100 µM (inactive)	> 100 µM (inactive)	> 100 µM (inactive)	> 100 µM (inactive)	> 100 µM (inactive)			> 100 µM (inactive)	> 100 µM (inactive)	> 100 µM (inactive)		> 100 µM	> 100 µM (inactive)	> 100 µM (inactive)	> 100 µM (inactive)			> 100 µM (inactive)	> 100 µM (inactive)
Nc1ccc(-c2nc3ccccc3s2)cc1F	21.5 µM (inactive)	20.7 µM (inactive)	10.8 µM (inactive)	30.7 µM (inactive)	29.2 µM (inactive)		0.0775 µM (active)	2.59 µM (inactive)	25.8 µM (inactive)			33.2 µM	19.2 µM (inactive)	< 0.01 µM (active)		68.4 µM (inactive)	28.8 µM (inactive)	31.6 µM (inactive)	29.1 µM (inactive)
C(=N\NC1=NCCCN1)/c1ccc(-c2cn3cc(/C=N/NC4=NCCCN4)ccc3n2)cc1	> 81.5 µM (inactive)	> 100 µM (inactive)	5.73 µM (inactive)	> 79.8 µM (inactive)	29.3 µM (inactive)	7.23 µM (inactive)	> 41.7 µM (inactive)	45.9 µM (inactive)	> 100 µM (inactive)	20.7 µM (inactive)	> 53.3 µM (inactive)	> 100 µM	> 100 µM (inactive)	32 µM (inactive)	> 100 µM (inactive)	> 100 µM (inactive)	> 100 µM (inactive)	> 100 µM (inactive)	
C=CCOC(=O)CCCCCCCCCCCCCCCOC(=O)c1c(CCC[C@@H](C)O[Si](C)(C)C(C)(C)C)nc([O-])[n+]2c1CC[C@H]2CC1(CC/C=C\[C@H](CC)O[Si](C(C)C)(C(C)C)C(C)C)OCCO1	> 100 µM (inactive)	30.4 µM (inactive)		48.6 µM (inactive)		> 100 µM (inactive)	> 100 µM (inactive)	> 100 µM (inactive)	48.8 µM (inactive)		73.8 µM (inactive)	46 µM	80.2 µM (inactive)	53.5 µM (inactive)	> 100 µM (inactive)	> 100 µM (inactive)	> 100 µM (inactive)	> 100 µM (inactive)	
